# From publication PMC3667592 (Journal of medicinal chemistry, 2013)
# Marks after values point to notes of the source that are not given here.
# Tests used:
# VanA and VanB VRE = conditions: cited from earlier work
# [1] = Ligand binding, UV-difference titration; conditions: binding to N,N′-Ac2-L-Lys-D-Ala-D-Ala (3)
# [2] = reprogrammed precursor terminus D-Ala-D-Lac; cited from earlier work
# [3] = binding to N,N′-Ac2-L-Lys-D-Ala-D-Ala (3), ref 8a; cited from earlier work
SMILES,Fold drop in antimicrobial activity against resistant strains (VanA and VanB VRE) [fold],"Association constant for 3, Ka [1]",Fold decrease in antibiotic binding affinity (D-Ala-D-Lac vs D-Ala-D-Ala) [2] [fold],"Association constant for 3, Ka (value in parentheses) [3]"
"CN[C@H](CC(C)C)C(=O)N[C@H]1C(=O)N[C@@H](CC(N)=O)C(=O)N[C@H]2C(=O)N[C@H]3C(=O)N[C@H](C(=O)N[C@H](C(=O)O)c4cc(O)cc(O)c4-c4cc3ccc4O)[C@H](O)c3ccc(c(Cl)c3)Oc3cc2cc(c3O[C@@H]2O[C@H](CO)[C@@H](O)[C@H](O)[C@H]2O[C@H]2C[C@](C)(N)[C@H](O)[C@H](C)O2)Oc2ccc(cc2Cl)[C@H]1O [Vancomycin (1), Vancomycin]",1000,1.8 M^−1 (× 10^5),1000,2.3–3.9 M^−1 (× 10^5)
"CN[C@H](CC(C)C)C(=O)N[C@H]1C(=O)N[C@@H](CC(N)=O)C(=O)N[C@H]2C(=O)N[C@H]3C(=O)N[C@H](C(=O)N[C@H](C(=O)O)c4cc(O)cc(O)c4-c4cc3ccc4O)[C@H](O)c3ccc(c(Cl)c3)Oc3cc2cc(c3O)Oc2ccc(cc2Cl)[C@H]1O [Vancomycin Aglycon (2), Vancomycin Aglycon]",–,1.4 M^−1 (× 10^5),–,–
